Source: article PMC9736855, “Discovery of 3-Amino-1H-pyrazole-Based Kinase Inhibitors to Illuminate the Understudied PCTAIRE Family” (International Journal of Molecular Sciences, 2022)

Assays:
[1] = biological target: T1, BRD4 (Homo sapiens, UniProt O60885); assay: DSF; assay type: binding
T1 construct: purchased in-house DSF panel (SGC Frankfurt)

[2] = biological target: T2, DMPK1 (Homo sapiens, UniProt Q09013); assay: DSF; assay type: binding
T2 construct: purchased in-house DSF panel (SGC Frankfurt)
T2 sequence (Q09013 1-629): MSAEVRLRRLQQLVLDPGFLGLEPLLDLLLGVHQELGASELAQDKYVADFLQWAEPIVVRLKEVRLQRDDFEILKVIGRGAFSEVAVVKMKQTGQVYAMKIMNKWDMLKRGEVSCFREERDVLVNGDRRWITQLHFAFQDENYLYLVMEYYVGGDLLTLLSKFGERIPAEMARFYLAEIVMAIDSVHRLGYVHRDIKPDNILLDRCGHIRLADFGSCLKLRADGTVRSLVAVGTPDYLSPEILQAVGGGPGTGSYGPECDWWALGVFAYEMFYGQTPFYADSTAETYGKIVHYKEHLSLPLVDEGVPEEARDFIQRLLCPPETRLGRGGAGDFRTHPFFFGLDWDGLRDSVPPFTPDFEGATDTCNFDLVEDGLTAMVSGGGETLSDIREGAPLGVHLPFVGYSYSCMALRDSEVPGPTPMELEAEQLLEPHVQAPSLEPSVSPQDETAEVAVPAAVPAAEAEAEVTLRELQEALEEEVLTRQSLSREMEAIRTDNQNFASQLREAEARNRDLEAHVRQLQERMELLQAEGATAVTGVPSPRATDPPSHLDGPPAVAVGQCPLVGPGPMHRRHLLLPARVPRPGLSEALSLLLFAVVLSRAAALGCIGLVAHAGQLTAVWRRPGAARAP
Description: (§2) Recombinant protein kinase domains with a concentration of 2 μM were mixed with a 10 μM compound solution in DMSO, 20 mM HEPES, pH 7.5, and 500 mM NaCl. SYPRO Orange (5000×, Invitrogen) was added as a fluorescence probe (1 µl per mL). Subsequently, temperature-dependent protein unfolding profiles were measured, using the QuantStudio™ 5 realtime PCR machine (Thermo Fisher, Waltham, MA, USA). […] The temperature was raised with a step rate of 3 °C per minute. Data points were analyzed with the internal software (Thermal Shift SoftwareTM Version 1.4, Thermo Fisher) using the Boltzmann equation to determine the inflection point of the transition curve [56]. Differences in melting temperature are given as ΔTm values in °C. Measurements were performed in duplicates.

[3] = biological target: T3, EPHA5 (Homo sapiens, UniProt P54756); assay: DSF; assay type: binding;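 note: compound tested at 10 µM with 2 µM protein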
T3 construct: purchased in-house DSF panel (SGC Frankfurt)
T3 sequence (P54756 653-939): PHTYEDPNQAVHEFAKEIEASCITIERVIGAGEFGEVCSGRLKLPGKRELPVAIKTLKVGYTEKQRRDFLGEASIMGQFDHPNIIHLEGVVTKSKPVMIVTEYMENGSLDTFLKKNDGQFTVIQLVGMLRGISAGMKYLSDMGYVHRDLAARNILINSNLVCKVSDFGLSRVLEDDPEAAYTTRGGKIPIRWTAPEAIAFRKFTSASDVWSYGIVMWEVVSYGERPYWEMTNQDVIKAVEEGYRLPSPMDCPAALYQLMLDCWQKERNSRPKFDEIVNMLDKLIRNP
Description: as §2

[4] = biological target: T4, STK17B (Homo sapiens, UniProt O94768); assay: DSF; assay type: binding
T4 construct: purchased in-house DSF panel (SGC Frankfurt)
T4 sequence (O94768 25-329): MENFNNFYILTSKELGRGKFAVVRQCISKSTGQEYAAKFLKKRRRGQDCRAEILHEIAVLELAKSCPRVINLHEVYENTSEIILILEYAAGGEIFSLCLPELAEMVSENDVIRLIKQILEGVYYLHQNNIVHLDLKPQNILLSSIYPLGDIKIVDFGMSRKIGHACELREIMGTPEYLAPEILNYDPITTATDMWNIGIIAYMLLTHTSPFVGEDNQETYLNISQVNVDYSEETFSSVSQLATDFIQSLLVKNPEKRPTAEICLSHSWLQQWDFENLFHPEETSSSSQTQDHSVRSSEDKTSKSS
Description: as §2

[5] = biological target: T5, BRAF (Homo sapiens, UniProt P15056); assay: DSF; assay type: binding
T5 construct: purchased in-house DSF panel (SGC Frankfurt)
Description: as §2

[6] = biological target: T6, TTK (Homo sapiens, UniProt P33981); assay: DSF; assay type: binding;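 note: compound tested at 10 µM with 2 µM protein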
T6 construct: purchased in-house DSF panel (SGC Frankfurt)
T6 sequence (P33981 519-808): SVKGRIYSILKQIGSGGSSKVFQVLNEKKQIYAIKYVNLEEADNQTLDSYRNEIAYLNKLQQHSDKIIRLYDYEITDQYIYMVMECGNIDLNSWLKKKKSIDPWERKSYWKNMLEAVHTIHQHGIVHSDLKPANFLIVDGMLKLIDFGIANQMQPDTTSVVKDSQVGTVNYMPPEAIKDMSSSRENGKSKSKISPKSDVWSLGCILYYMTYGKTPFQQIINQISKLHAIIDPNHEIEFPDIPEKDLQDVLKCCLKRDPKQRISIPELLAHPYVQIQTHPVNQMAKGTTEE
Description: as §2

[7] = biological target: T7, CDK5/CDK5R1 (Homo sapiens, UniProt Q00535); assay: NanoBRET; assay type: cell-based; settings: read-out: NanoBRET EC50 ± SEM CDK5/CDK5R1
T7 construct: Full-length kinases were obtained as plasmids cloned in frame with a terminal NanoLuc-fusion; CS1810C173 (CDK5R1); host or cells: HEK293T
Method in brief: (§1)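 Tracer displacement by the inhibitor was read as BRET (450 nm donor, 610 nm acceptor) in live HEK293T cells transiently expressing full-length NanoLuc-tagged kinase. Tracer was used at its KD,app, with 2 h equilibration at 37 °C; EC50 values came from a normalized 3-parameter curve.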

[8] = biological target: T8, CDK5/CDK5R2 (Homo sapiens, UniProt Q00535); assay: NanoBRET; assay type: cell-based; settings: read-out: NanoBRET EC50 ± SEM CDK5/CDK5R2
T8 construct: Full-length kinases were obtained as plasmids cloned in frame with a terminal NanoLuc-fusion; CS1810C174 (CDK5R2); host or cells: HEK293T
Method in brief: as §1

[9] = biological target: T9, TLK1 (Homo sapiens, UniProt Q9UKI8); assay: DSF; assay type: binding
T9 construct: purchased in-house DSF panel (SGC Frankfurt)
Description: as §2

[10] = biological target: T10, EPHB1 (Homo sapiens, UniProt P54762); assay: DSF; assay type: binding
T10 construct: purchased in-house DSF panel (SGC Frankfurt)
Description: as §2

[11] = biological target: T11, BRPF1B (Homo sapiens, UniProt P55201); assay: DSF; assay type: binding
T11 construct: purchased in-house DSF panel (SGC Frankfurt)

[12] = biological target: T12, SPRK1 (Homo sapiens, UniProt Q96SB4); assay: DSF; assay type: binding
T12 construct: purchased in-house DSF panel (SGC Frankfurt)
Description: as §2

[13] = biological target: T13, MAP3K5 (Homo sapiens, UniProt Q99683); assay: DSF; assay type: binding
T13 construct: purchased in-house DSF panel (SGC Frankfurt)
T13 sequence (Q99683 659-951): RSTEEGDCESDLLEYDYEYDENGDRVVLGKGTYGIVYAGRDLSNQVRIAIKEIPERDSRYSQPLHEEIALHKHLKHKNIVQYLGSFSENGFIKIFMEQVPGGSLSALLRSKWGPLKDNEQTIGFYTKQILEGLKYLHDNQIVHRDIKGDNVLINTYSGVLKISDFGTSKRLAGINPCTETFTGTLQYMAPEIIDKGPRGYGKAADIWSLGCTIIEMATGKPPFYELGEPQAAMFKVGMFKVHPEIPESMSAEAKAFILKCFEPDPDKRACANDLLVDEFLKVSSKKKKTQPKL
Description: as §2

T5 sequence (P15056 444-723): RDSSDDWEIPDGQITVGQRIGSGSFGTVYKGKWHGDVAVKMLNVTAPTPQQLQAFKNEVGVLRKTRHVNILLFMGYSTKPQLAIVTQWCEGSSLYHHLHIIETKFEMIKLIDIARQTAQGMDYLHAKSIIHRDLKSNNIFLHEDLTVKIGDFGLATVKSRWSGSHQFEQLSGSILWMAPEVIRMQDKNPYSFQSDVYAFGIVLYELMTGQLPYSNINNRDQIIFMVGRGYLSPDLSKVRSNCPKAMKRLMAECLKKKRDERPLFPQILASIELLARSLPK
T11 sequence (P55201 whole entry): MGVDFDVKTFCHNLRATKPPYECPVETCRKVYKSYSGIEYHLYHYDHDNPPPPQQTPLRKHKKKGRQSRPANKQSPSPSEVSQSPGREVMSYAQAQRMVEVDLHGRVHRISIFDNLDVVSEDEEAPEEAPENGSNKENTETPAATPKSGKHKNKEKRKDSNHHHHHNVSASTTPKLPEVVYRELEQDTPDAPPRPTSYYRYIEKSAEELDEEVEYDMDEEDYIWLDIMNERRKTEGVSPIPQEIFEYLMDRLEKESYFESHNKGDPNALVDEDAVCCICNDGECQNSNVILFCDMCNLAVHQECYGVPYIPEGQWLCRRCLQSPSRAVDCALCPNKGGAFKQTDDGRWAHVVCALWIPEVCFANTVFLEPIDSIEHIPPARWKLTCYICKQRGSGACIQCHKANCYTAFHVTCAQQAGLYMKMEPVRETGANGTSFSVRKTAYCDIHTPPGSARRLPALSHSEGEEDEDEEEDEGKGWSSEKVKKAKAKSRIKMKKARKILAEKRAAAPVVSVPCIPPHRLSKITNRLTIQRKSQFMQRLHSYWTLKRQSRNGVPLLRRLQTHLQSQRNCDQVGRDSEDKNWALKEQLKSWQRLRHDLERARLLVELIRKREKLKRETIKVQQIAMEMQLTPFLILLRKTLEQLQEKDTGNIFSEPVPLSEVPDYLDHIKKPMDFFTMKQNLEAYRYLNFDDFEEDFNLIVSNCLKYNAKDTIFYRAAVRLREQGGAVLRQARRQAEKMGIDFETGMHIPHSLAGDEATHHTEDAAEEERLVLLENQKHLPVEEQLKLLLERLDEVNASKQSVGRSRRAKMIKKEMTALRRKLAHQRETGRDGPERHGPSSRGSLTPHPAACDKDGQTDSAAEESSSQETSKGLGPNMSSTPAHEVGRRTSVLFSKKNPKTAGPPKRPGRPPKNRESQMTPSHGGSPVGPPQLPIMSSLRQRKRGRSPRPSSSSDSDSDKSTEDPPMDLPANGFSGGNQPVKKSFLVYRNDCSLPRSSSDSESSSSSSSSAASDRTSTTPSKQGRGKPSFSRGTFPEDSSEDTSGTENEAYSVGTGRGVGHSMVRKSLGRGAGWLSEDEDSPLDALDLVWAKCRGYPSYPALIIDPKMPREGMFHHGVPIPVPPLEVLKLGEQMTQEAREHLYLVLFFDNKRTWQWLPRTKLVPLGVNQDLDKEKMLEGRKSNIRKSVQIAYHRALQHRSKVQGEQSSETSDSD
T12 sequence (Q96SB4 whole entry): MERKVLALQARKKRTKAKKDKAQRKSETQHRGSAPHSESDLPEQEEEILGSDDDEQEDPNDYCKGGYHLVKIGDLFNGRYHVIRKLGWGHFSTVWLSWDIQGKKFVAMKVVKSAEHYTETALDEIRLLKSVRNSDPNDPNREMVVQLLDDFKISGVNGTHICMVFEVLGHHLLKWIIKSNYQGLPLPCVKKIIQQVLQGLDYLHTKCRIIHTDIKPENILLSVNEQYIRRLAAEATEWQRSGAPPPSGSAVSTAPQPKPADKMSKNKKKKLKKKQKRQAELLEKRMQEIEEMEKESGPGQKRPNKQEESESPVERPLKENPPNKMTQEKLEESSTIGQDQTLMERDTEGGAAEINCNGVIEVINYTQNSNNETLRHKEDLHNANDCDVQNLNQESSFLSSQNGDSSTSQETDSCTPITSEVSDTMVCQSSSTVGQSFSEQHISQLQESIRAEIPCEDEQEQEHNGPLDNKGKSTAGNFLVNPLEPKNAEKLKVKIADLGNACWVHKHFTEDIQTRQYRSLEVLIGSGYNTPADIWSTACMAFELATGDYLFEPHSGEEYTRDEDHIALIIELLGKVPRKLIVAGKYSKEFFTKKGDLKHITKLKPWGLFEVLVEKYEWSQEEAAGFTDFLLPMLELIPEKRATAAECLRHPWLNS
T9 sequence (Q9UKI8 456-734): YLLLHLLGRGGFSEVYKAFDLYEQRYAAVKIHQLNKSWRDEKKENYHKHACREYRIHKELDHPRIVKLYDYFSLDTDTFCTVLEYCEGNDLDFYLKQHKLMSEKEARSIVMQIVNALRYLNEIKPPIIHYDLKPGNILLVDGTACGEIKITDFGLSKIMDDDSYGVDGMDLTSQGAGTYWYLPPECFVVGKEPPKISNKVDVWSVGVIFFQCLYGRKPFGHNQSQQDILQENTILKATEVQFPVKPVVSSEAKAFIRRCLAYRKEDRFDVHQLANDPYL
T7 sequence (Q00535 whole entry, the tested form may be a part): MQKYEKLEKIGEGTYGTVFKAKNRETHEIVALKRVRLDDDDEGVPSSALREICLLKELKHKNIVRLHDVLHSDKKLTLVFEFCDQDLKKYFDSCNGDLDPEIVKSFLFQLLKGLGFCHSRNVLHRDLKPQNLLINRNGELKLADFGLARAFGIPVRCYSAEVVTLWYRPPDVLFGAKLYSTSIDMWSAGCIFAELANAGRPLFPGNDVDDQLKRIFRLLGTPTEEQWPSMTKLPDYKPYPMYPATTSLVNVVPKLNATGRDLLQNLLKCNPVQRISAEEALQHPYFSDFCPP
T7 sequence (Q15078 whole entry partner, the tested form may be a part): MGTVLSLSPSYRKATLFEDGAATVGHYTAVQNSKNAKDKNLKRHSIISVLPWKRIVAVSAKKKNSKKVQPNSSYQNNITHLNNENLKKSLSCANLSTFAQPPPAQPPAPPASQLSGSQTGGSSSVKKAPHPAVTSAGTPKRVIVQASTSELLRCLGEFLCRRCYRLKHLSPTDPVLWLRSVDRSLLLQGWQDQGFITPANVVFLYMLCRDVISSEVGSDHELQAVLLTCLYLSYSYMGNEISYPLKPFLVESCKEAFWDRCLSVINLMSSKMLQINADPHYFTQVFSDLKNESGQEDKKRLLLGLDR
T8 sequence (Q00535 whole entry, the tested form may be a part): as the sequence (Q00535 whole entry, the tested form may be a part) above
T8 sequence (Q13319 whole entry partner, the tested form may be a part): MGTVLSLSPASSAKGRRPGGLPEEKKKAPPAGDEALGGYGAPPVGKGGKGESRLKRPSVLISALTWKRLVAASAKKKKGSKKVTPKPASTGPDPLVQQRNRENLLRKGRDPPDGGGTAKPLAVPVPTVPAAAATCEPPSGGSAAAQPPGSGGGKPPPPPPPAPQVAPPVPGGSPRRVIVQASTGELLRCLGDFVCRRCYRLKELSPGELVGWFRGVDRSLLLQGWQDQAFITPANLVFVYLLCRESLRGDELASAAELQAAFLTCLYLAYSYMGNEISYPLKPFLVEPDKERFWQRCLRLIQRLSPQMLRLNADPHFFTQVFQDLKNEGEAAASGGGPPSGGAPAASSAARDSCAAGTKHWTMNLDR
T10 sequence (P54762 602-896): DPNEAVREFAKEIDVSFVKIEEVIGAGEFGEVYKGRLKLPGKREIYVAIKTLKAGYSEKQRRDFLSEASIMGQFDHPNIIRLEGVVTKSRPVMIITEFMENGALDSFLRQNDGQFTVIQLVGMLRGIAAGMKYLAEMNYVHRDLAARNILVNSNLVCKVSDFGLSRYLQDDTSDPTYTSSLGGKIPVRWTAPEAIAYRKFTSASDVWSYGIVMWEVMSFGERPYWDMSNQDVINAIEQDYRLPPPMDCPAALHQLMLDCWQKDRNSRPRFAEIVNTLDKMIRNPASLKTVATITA

Row | Compound | ΔTm BRD4 [1] [°C] | ΔTm DMPK1 [2] [°C] | ΔTm EPHA5 [3] [°C] | ΔTm STK17B [4] [°C] | ΔTm BRAF [5] [°C] | ΔTm TTK [6] [°C] | EC50 [7] [µM] | EC50 [8] [µM] | ΔTm TLK1 [9] [°C] | ΔTm EPHB1 [10] [°C] | ΔTm BRPF1B [11] [°C] | ΔTm SPRK1 [12] [°C] | ΔTm MAP3K5 [13] [°C]
1 | COC(=O)c1cc(Nc2ccnc(NCCOCCNC(=O)OC(C)(C)C)n2)[nH]n1 [21d, methyl 5-((2-((2-(2-((tert-butoxycarbonyl)amino)ethoxy)ethyl)amino)pyrimidin-4-yl)amino)-1H-pyrazole-3-carboxylate] | 0.7 | 0.5 | 0.2 | 1.6 | 0.9 | 1.6 |  |  |  |  |  |  | 
2 | COC(=O)c1cc(Nc2ccnc(NCc3ccc(NC(=O)OC(C)(C)C)cc3)n2)[nH]n1 [21i, methyl 5-((2-((4-((tert-butoxycarbonyl)amino)benzyl)amino)pyrimidin-4-yl)amino)-1H-pyrazole-3-carboxylate] | 1.0 | 0.1 | 0.2 | 3.4 | 1.0 | 0.0 | 28.6 ± 4.65 | 38.6 ± 5.85 |  |  |  |  | 
3 | CC(C)OC(=O)c1cc(Nc2ccnc(NCc3ccc(NC(=O)OC(C)(C)C)cc3)n2)n[nH]1 [42d, isopropyl 3-((2-((4-((tert-butoxycarbonyl)amino)benzyl)amino)pyrimidin-4-yl)amino)-1H-pyrazole-5-carboxylate] | -2.1 | -0.1 | -0.6 | -2.8 | 0.4 | -0.1 |  |  | -1.2 | 0.9 | -1.4 | -0.2 | 0.1
4 | CC(C)(C)OC(=O)Nc1ccc(CNc2nccc(Nc3cc(C(=O)OC(C)(C)C)[nH]n3)n2)cc1 [43d, tert-butyl 3-((2-((4-((tert-butoxycarbonyl)amino)benzyl)amino)pyrimidin-4-yl)amino)-1H-pyrazole-5-carboxylate] | -1.5 | -0.1 | -2.7 | -2.5 | 0.7 | -0.2 |  |  | -1.4 | 1.0 | -0.9 | 0.4 | 0.1
5 | N#CCc1ccc(Nc2nccc(Nc3cc(C4CC4)[nH]n3)n2)cc1 [compound 1, reference compound] | 1.3 | 3.2 | 6.3 | 9.7 | 4.6 | 8.8 | 0.0303 ± 0.0103 | 0.0119 ± 0.0028 |  |  |  |  | 
